The term EC50 denotes the concentration that produces a half-maximal response. A high value points to lower potency in that assay.

Structures are written as SMILES.

The test system of this assay is NL-RLuc virus. As to the kind of experiment: Inhibition of HIV replication (NL-RLuc virus, luciferase readout in MT-2 cells). The conditions noted are these: Human immunodeficiency virus 1, MT2, 120 h, MT-2 cells infected with NL-RLuc virus, 5 days of incubation, 10% FBS, at least 2 experiments. The format is cell-based. In outline:
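EC50 derived via median effect equation from at least 2 experiments, using luciferase expression as virus-growth readout. Replication-competent NL-RLuc reporter virus (nef partly replaced by Renilla luciferase) infected MT-2 cells with serial compound dilutions; 5-day incubation in RPMI 1640 plus 10% FBS.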
`Cc1ncc(-c2cnc(OCCc3ccc(F)c(Cl)c3)c(F)c2)c(N2CCC(C)(C)CC2)c1[C@H](OC(C)(C)C)C(=O)O` [Example 403, (2S)-2-(tert-butoxy)-2-{6′-[2-(3-chloro-4-fluorophenyl)ethoxy]-4-(4,4-dimethylpiperidin-1-yl)-5′-fluoro-6-methyl-[3,3′-bipyridine]-5-yl}acetic acid] had an EC50 of 2 nM.
Under `Cc1nc(CN2CCC3(CCC3)CC2)c(-c2ccc(F)cc2)c(N2CCC(C)(C)CC2)c1[C@H](OC(C)(C)C)C(=O)O` [Example 191, (2S)-2-[6-({7-Azaspiro[3.5]nonan-7-yl}methyl)-4-(4,4-dimethylpiperidin-1-yl)-5-(4-fluorophenyl)-2-methylpyridin-3-yl]-2-(tert-butoxy)acetic acid] stands 2 nM; under `CC1(C)CCN(c2c(-c3ccc(F)c(F)c3)c(CN3CCC4(CCC4)CC3)nc(Cl)c2[C@H](OC(C)(C)C)C(=O)O)CC1` [Example 207, (S)-2-(6-((7-Azaspiro[3.5]nonan-7-yl)methyl)-2-chloro-5-(3,4-difluorophenyl)-4-(4,4-dimethylpiperidin-1-yl)pyridin-3-yl)-2-(tert-butoxy)acetic acid], 36 nM.
To `Cc1nc(-c2ccn(C)c2)c(-c2ccc(OCCc3ccc(F)cc3)cc2)c(N2CCC(C)(C)CC2)c1[C@H](OC(C)(C)C)C(=O)O` [Example 48, (S)-2-(tert-Butoxy)-2-(4-(4,4-dimethylpiperidin-1-yl)-5-(4-(4-fluorophenethoxy)phenyl)-2-methyl-6-(1-methyl-1H-pyrrol-3-yl)pyridin-3-yl)acetic acid] belongs 3 nM; to `Cc1ncc(-c2ccc3ccccc3c2)c(N2CCC(C)(C)CC2)c1[C@H](OC(C)(C)C)C(=O)O` [Example 183, (2S)-2-(tert-Butoxy)-2-[4-(4,4-dimethylpiperidin-1-yl)-2-methyl-5-(naphthalen-2-yl)pyridin-3-yl]acetic acid], 6 nM; to `CCOc1ccc(-c2cnc(C)c([C@H](OC(C)(C)C)C(=O)O)c2N2CCC(C)(C)CC2)c(F)c1F` [Example 175, (2S)-2-(tert-Butoxy)-2-[4-(4,4-dimethylpiperidin-1-yl)-5-(4-ethoxy-2,3-difluorophenyl)-2-methylpyridin-3-yl]acetic acid], 6 nM.
To `Cc1nc(C(=O)N2CCS(=O)(=O)CC2)c(-c2ccc(OCCc3ccc(F)cc3)cc2)c(N2CCC(C)(C)CC2)c1[C@H](OC(C)(C)C)C(=O)O` [Example 10, (S)-2-(tert-Butoxy)-2-(4-(4,4-dimethylpiperidin-1-yl)-6-(1,1-dioxidothiomorpholine-4-carbonyl)-5-(4-(4-fluorophenethoxy)phenyl)-2-methylpyridin-3-yl)acetic acid] belongs 31 nM; to `COc1ccc(CCOc2ncc(-c3cnc(C)c([C@H](OC(C)(C)C)C(=O)O)c3N3CCC(C)(C)CC3)cc2F)cc1C` [Example 391, (2S)-2-(tert-butoxy)-2-[4-(4,4-dimethylpiperidin-1-yl)-5′-fluoro-6′-[2-(4-methoxy-3-methylphenyl)ethoxy]-6-methyl-[3,3′-bipyridine]-5-yl]acetic acid], 4 nM; to `COc1nc(C)c(-c2ccc(OCCc3ccc(F)cc3)cc2)c(N2CCC(C)(C)CC2)c1[C@H](OC(C)(C)C)C(=O)O` [Example 3, (S)-2-(tert-Butoxy)-2-(4-(4,4-dimethylpiperidin-1-yl)-5-(4-(4-fluorophenethoxy)phenyl)-2-methoxy-6-methylpyridin-3-yl)acetic acid], 8 nM.
In turn, `COc1ccc(-c2cnc(C)c([C@H](OC(C)(C)C)C(=O)O)c2N2CCC(C)(C)CC2)nn1` [Example 15, (S)-2-(tert-Butoxy)-2-(4-(4,4-dimethylpiperidin-1-yl)-5-(6-methoxypyridazin-3-yl)-2-methylpyridin-3-yl)acetic acid] yielded an EC50 of 16 nM.
Under `Cc1ncc(-c2ccc3c(c2)OCO3)c(N2CCC(C)(C)CC2)c1[C@H](OC(C)(C)C)C(=O)O` [Example 180, (2S)-2-[5-(2H-1,3-Benzodioxol-5-yl)-4-(4,4-dimethylpiperidin-1-yl)-2-methylpyridin-3-yl]-2-(tert-butoxy)acetic acid] stands 3 nM.
Under `Cc1ncc(-c2ccc(OCCc3ccccc3F)cc2)c(N2CCC(C)(C)CC2)c1[C@H](OC(C)(C)C)C(=O)O` [Example 259, (S)-2-(tert-Butoxy)-2-(4-(4,4-dimethylpiperidin-1-yl)-5-(4-(2-fluorophenethoxy)phenyl)-2-methylpyridin-3-yl)acetic acid] stands 1 nM; under `Cc1cc(-c2cnc(C)c([C@H](OC(C)(C)C)C(=O)O)c2N2CCC(C)(C)CC2)nnc1OCCc1ccc(F)cc1` [Example 268, (S)-2-(tert-Butoxy)-2-(4-(4,4-dimethylpiperidin-1-yl)-5-(6-(4-fluorophenethoxy)-5-methylpyridazin-3-yl)-2-methylpyridin-3-yl)acetic acid], 50 nM.
To `COc1ccc(CCOc2ccc(-c3cnc(C)c([C@H](OC(C)(C)C)C(=O)O)c3N3CCC(C)(C)CC3)cc2)cc1` [Example 367, (2S)-2-(tert-butoxy)-2-[4-(4,4-dimethylpiperidin-1-yl)-5-{4-[2-(4-methoxyphenyl)ethoxy]phenyl}-2-methylpyridin-3-yl]acetic acid] belongs 1 nM; to `CCCCC(F)(F)c1ccc(-c2cnc(C)c([C@H](OC(C)(C)C)C(=O)O)c2N2CCC(C)(C)CC2)nc1` [Example 276, (S)-2-(tert-Butoxy)-2-(5-(1,1-difluoropentyl)-4′-(4,4-dimethylpiperidin-1-yl)-6′-methyl-[2, 3′-bipyridin]-5′-yl)acetic acid], 14 nM; to `Cc1nc(NCCN2CCCCC2)c(-c2ccc(OCCc3ccc(F)cc3)cc2)c(N2CCC(C)(C)CC2)c1[C@H](OC(C)(C)C)C(=O)O` [Example 29, (S)-2-(tert-Butoxy)-2-(4-(4,4-dimethylpiperidin-1-yl)-5-(4-(4-fluorophenethoxy)phenyl)-2-methyl-6-((2-(piperidin-1-yl)ethyl)amino)pyridin-3-yl)acetic acid], 0.2 nM.
`Cc1ncc(-c2ccc(OCCc3ccccc3Cl)cn2)c(N2CCC(C)(C)CC2)c1[C@H](OC(C)(C)C)C(=O)O` [Example 302, (2S)-2-(tert-butoxy)-2-{5-[2-(2-chlorophenyl)ethoxy]-4′-(4,4-dimethylpiperidin-1-yl)-6′-methyl-[2,3′-bipyridine]-5′-yl}acetic acid] came in with an EC50 of 0.6 nM.
Under `Cc1ncc(-c2ccc(OCC(C)C)nc2F)c(N2CCC(C)(C)CC2)c1[C@H](OC(C)(C)C)C(=O)O` [Example 434, (2S)-2-tert-Butoxy-2-(4-(4,4-dimethylpiperidin-1-yl)-2′-fluoro-6′-isobutoxy-6-methyl-3, 3′-bipyridin-5-yl)acetic acid] stands 13 nM; under `COc1ccc(-c2cnc(C)c([C@H](OC(C)(C)C)C(=O)O)c2N2CCC(C)(C)CC2)cc1F` [Example 179, (2S)-2-(tert-Butoxy)-2-[4-(4,4-dimethylpiperidin-1-yl)-5-(3-fluoro-4-methoxyphenyl)-2-methylpyridin-3-yl]acetic acid], 5 nM; under `Cc1ncc(-c2ccc(COc3ccccc3)cn2)c(N2CCC(C)(C)CC2)c1[C@H](OC(C)(C)C)C(=O)O` [Example 272, (S)-2-(tert-Butoxy)-2-(4′-(4,4-dimethylpiperidin-1-yl)-6′-methyl-5-(phenoxymethyl)-[2, 3′-bipyridin]-5′-yl)acetic acid], 2 nM.
To `CCOc1ccc(-c2cnc(C)c([C@H](OC(C)(C)C)C(=O)O)c2N2CCC(C)(C)CC2)cn1` [Example 112, (S)-2-(tert-Butoxy)-2-(4-(4,4-dimethylpiperidin-1-yl)-6′-ethoxy-6-methyl-[3, 3′-bipyridin]-5-yl)acetic acid] belongs 5 nM.
Under `Cc1nc(-n2ccnc2C)c(-c2ccc(OCCc3ccc(F)cc3)cc2)c(N2CCC(C)(C)CC2)c1[C@H](OC(C)(C)C)C(=O)O` [Example 54, (S)-2-(tert-Butoxy)-2-(4-(4,4-dimethylpiperidin-1-yl)-5-(4-(4-fluorophenethoxy)phenyl)-2-methyl-6-(2-methyl-1H-imidazol-1-yl)pyridin-3-yl)acetic acid] stands 2 nM; under `Cc1ccc(CCOc2ncc(-c3cnc(C)c([C@H](OC(C)(C)C)C(=O)O)c3N3CCC(C)(C)CC3)cc2F)cc1` [Example 405, (2S)-2-(tert-butoxy)-2-[4-(4,4-dimethylpiperidin-1-yl)-5′-fluoro-6-methyl-6′-[2-(4-methylphenyl)ethoxy]-[3,3′-bipyridine]-5-yl]acetic acid], 4 nM; under `CC1(C)CCN(c2c(-c3ccc(OCCc4ccc(F)cc4)cc3)cnc(C#N)c2[C@H](OC(C)(C)C)C(=O)O)CC1` [Example 222, (S)-2-(tert-Butoxy)-2-(2-cyano-4-(4,4-dimethylpiperidin-1-yl)-5-(4-(4-fluorophenethoxy)phenyl)pyridin-3-yl)acetic acid], 8 nM.
`Cc1ncc(-c2cnc(O[C@H](C)C(C)C)c(F)c2)c(N2CCC(C)(C)CC2)c1[C@H](OC(C)(C)C)C(=O)O` [Example 369, (2S)-2-(tert-butoxy)-2-[4-(4,4-dimethylpiperidin-1-yl)-5′-fluoro-6-methyl-6′-{[(2R)-3-methylbutan-2-yl]oxy}-[3,3′-bipyridine]-5-yl]acetic acid] registered a concentration giving a half-maximal response (EC50) of 2 nM.
To `Cc1nc(N)c(-c2ccc(OCCc3ccc(F)cc3)c(F)c2)c(N2CCC(C)(C)CC2)c1[C@H](OC(C)(C)C)C(=O)O` [Example 73, (S)-2-(6-Amino-4-(4,4-dimethylpiperidin-1-yl)-5-(3-fluoro-4-(4-fluorophenethoxy)phenyl)-2-methylpyridin-3-yl)-2-(tert-butoxy)acetic acid] belongs 1 nM; to `Cc1cccc(Cl)c1CCOc1ccc(-c2cnc(C)c([C@H](OC(C)(C)C)C(=O)O)c2N2CCC(C)(C)CC2)nc1` [Example 284, (S)-2-(tert-Butoxy)-2-(5-(2-chloro-6-methylphenethoxy)-4′-(4,4-dimethylpiperidin-1-yl)-6′-methyl-[2, 3′-bipyridin]-5′-yl)acetic acid], 3 nM.
